{"source": "patent US11844785B2", "about": "“3-(phenyl)-N-(4-phenoxybenzyl)-1,2,4-oxadiazole-5-carboxamide compounds for the management of CFTR protein mediated diseases” (Emory University, priority 2015, dated 2023)", "key": {"mCFTR": {"molecular_target": "mCFTR (Mus musculus, UniProt P26361)", "sequence (P26361 whole entry)": "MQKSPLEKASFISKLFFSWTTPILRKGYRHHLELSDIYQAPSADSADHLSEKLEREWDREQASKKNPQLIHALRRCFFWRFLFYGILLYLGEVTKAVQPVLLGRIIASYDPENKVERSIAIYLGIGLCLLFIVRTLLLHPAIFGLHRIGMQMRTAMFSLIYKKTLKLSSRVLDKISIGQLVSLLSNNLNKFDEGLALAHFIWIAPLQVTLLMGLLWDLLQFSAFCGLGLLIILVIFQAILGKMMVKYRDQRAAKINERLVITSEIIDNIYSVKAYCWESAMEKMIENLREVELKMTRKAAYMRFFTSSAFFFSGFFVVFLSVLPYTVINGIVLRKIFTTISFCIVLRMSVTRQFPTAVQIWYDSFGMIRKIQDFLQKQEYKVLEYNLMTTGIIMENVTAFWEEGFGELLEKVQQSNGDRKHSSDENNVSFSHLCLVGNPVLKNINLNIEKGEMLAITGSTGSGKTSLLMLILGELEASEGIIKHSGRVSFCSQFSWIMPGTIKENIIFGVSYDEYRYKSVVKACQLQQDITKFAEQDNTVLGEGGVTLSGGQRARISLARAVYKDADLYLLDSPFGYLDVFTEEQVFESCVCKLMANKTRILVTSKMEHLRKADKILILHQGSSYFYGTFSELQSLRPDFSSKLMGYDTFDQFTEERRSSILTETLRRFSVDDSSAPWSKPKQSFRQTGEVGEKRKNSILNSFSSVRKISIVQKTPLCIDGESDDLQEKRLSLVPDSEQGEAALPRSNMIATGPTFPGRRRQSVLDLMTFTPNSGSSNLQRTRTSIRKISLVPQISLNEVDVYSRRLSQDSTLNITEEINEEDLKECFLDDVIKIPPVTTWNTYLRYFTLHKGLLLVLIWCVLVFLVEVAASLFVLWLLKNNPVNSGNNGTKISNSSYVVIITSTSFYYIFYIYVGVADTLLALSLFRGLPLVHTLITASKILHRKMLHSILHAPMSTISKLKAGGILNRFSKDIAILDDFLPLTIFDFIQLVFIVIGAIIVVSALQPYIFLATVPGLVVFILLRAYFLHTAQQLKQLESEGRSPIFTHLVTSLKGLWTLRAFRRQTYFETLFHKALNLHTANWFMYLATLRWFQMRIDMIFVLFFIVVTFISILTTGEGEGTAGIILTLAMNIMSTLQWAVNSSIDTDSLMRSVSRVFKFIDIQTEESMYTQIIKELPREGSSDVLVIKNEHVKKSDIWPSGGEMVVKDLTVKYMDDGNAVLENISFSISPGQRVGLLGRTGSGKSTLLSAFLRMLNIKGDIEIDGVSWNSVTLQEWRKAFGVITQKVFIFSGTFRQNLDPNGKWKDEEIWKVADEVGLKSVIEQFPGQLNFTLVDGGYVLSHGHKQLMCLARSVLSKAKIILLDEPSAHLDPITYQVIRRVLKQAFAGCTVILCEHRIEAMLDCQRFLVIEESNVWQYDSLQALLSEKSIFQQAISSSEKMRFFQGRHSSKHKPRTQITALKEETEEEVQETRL", "conditions": "cited from earlier work"}, "hCFTR": {"molecular_target": "hCFTR (Homo sapiens, UniProt P13569)", "sequence (P13569 whole entry)": "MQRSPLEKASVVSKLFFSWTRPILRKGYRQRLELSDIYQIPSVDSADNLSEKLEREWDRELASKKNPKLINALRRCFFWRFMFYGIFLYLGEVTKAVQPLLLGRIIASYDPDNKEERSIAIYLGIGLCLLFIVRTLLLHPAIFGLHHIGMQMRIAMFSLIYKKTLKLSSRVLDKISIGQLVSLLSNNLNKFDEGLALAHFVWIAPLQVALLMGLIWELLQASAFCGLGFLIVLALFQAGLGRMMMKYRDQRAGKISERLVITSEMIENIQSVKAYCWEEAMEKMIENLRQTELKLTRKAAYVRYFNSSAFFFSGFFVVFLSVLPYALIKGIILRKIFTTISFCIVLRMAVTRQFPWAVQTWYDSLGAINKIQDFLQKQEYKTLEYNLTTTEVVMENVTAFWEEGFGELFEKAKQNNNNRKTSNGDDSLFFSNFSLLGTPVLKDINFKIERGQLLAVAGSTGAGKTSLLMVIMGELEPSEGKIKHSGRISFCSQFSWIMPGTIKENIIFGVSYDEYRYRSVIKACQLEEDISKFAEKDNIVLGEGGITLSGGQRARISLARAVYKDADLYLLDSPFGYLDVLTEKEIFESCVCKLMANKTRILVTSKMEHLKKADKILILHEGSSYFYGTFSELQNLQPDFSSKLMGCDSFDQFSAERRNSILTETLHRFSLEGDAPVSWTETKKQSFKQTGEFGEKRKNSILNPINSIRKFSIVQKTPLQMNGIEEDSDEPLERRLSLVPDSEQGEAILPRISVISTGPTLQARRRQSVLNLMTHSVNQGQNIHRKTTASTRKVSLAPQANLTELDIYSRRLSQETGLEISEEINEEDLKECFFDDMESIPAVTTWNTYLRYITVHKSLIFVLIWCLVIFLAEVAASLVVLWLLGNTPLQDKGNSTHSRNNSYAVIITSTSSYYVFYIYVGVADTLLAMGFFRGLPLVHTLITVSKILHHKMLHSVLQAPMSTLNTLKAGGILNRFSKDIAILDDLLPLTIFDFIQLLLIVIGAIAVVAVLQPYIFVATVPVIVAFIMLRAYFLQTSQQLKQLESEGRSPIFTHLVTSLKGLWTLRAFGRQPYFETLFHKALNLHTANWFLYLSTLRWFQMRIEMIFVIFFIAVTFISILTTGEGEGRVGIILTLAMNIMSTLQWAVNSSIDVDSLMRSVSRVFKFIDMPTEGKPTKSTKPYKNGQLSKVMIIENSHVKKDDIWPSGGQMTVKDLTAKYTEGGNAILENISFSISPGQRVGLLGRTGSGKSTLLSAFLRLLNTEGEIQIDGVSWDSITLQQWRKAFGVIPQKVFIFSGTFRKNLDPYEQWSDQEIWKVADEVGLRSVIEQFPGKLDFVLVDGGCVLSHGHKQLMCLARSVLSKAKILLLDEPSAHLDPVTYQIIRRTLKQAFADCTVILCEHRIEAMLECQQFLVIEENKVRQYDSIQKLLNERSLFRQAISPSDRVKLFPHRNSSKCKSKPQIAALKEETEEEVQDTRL", "conditions": "cited from earlier work"}, "[1]": {"molecular_target": "T1, human CFTR with a R352A mutation (Homo sapiens, UniProt P13569, R352A)", "T1 construct": "expressed in transfected cells; host or cells: Xenopus laevis oocytes injected with cRNA; mutant made by Quikchange site-directed mutagenesis of hCFTR/pGEMHE", "T1 sequence (P13569 whole entry R352A)": "as the sequence (P13569 whole entry) above, with R352A counted along it", "test": "Two-electrode voltage clamp (TEVC) on Xenopus oocytes expressing R352A-hCFTR", "assay_type": "cell-based", "conditions": "FIG. 2B", "text": "(§1) In order to identify compounds that potentiate F508del-hCFTR expressed in Xenopus oocytes, the effects of IOWH-032 on WT, R352A, and F508del-hCFTR were studied using the two-electrode voltage clamp (TEVC) technique. […] See Drumm et al. Chloride conductance expressed by delta F508 and other mutant CFTRs in Xenopus oocytes. Science, 1991, 254(5039): 1797-1799. Extracellular exposure to IOWH-032 potentiated WT and F508del-hCFTR channels.\n(§2) Human CFTR cRNAs used in electrophysiology experiments were prepared from constructs encoding WT-hCFTR in the pGEMHE vector (hCFTR/pGEMHE kindly provided by Dr. D. Gadsby, Rockefeller University). The mutants of hCFTR used in this study were prepared using site-directed mutagenesis with the Quikchange protocol (Stratagene, La Jolla, CA) and mutant constructs were verified by sequencing across the entire open reading frame before use. […]\n(§3) Standard two-electrode voltage clamp (TEVC) techniques were used to study the effects of chemicals with application of reagents to the extracellular bath. […] Electrode resistances measured 0.5-1.4 MΩ when filled with 3 M KCl and measured in standard ND96 bath solution that contained (in mM): 96 NaCl, 2 KCl, 1 MgCl2, and 5 HEPES (pH 7.5). […]"}, "F508del-hCFTR": {"molecular_target": "T2, F508del-hCFTR (Homo sapiens, UniProt P13569, DEL508-508)", "T2 construct": "expressed in transfected cells; host or cells: Xenopus laevis oocytes injected with cRNA; mutant made by Quikchange site-directed mutagenesis of hCFTR/pGEMHE", "T2 sequence (P13569 with tags, fused parts or gaps DEL508-508)": "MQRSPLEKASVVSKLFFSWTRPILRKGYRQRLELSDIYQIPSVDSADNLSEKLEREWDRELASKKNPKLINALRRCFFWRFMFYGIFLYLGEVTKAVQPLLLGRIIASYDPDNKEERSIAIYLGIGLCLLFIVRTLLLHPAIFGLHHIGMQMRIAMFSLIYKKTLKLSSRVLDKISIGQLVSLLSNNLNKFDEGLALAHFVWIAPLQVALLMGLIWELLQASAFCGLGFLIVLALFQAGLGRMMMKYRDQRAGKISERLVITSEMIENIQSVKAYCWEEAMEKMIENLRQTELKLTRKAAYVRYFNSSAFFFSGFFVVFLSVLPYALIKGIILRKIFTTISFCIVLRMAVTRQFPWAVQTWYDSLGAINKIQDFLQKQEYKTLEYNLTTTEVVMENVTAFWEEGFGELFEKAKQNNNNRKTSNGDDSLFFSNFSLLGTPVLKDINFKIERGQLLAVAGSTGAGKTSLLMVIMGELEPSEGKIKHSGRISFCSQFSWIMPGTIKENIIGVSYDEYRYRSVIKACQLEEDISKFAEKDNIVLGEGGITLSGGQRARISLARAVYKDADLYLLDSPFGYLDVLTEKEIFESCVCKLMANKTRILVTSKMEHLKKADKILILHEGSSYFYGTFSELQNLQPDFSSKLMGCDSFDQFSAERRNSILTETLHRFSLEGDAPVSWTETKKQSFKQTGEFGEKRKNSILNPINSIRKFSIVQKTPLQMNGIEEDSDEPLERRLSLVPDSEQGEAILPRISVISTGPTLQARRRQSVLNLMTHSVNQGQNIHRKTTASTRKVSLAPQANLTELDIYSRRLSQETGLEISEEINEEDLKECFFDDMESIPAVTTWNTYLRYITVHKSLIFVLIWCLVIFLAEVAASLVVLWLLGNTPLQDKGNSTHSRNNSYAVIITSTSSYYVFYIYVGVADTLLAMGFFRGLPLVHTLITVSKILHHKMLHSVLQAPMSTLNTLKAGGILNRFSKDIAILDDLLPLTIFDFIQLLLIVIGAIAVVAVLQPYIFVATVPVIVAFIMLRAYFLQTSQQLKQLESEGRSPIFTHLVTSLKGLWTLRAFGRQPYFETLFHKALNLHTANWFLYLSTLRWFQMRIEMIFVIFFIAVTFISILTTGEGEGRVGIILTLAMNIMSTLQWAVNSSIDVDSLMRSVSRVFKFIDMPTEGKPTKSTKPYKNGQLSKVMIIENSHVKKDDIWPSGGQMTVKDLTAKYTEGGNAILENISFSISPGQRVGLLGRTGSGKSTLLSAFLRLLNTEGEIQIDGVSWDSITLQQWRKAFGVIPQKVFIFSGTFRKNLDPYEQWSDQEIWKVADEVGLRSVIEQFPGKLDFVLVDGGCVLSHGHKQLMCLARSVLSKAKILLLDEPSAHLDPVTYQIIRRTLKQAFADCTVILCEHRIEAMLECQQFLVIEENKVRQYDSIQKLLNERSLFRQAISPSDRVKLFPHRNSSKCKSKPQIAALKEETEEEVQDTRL", "test": "Two-electrode voltage clamp (TEVC) on Xenopus oocytes expressing F508del-hCFTR", "assay_type": "cell-based", "conditions": "FIG. 2C", "text": "as §1, §2, §3"}, "[2]": {"molecular_target": "T3, wildtype human CFTR (WT-hCFTR) (Homo sapiens, UniProt P13569)", "T3 construct": "expressed in transfected cells; host or cells: Xenopus laevis oocytes injected with cRNA (hCFTR/pGEMHE, gift of D. Gadsby)", "T3 sequence (P13569 whole entry)": "as the sequence (P13569 whole entry) above", "test": "Two-electrode voltage clamp (TEVC) on Xenopus oocytes expressing WT-hCFTR", "assay_type": "cell-based", "conditions": "for Kd: FIG. 2A", "text": "as §1\nHuman CFTR cRNAs used in electrophysiology experiments were prepared from constructs encoding WT-hCFTR in the pGEMHE vector (hCFTR/pGEMHE kindly provided by Dr. D. Gadsby, Rockefeller University). The mutants of hCFTR used in this study were prepared using site-directed mutagenesis with the Quikchange protocol (Stratagene, La Jolla, CA) and mutant constructs were verified by sequencing across the entire open reading frame before use. Xenopus laevis oocytes were injected with 0.4-10 ng of CFTR cRNAs, and were incubated at 17° C. in modified Liebovitz's L-15 media with the addition of HEPES (pH 7.5), penicillin, and streptomycin. Recordings were made typically 24-96 hours after the injection of cRNAs.\nStandard two-electrode voltage clamp (TEVC) techniques were used to study the effects of chemicals with application of reagents to the extracellular bath. Each oocyte was injected with CFTR cRNA along with cRNA encoding the beta2-adrenergic receptor (β2AR). Electrode resistances measured 0.5-1.4 MΩ when filled with 3 M KCl and measured in standard ND96 bath solution that contained (in mM): 96 NaCl, 2 KCl, 1 MgCl2, and 5 HEPES (pH 7.5). CFTR channels were activated by exposure to 10 μM isoproterenol (ISO) in ND 96 and alternatively assayed in the presence or absence of different concentrations of compounds in the bath solution, typically in the continuing presence of ISO. Currents were acquired with an Axoclamp 900A amplifier and Clampex 10.2 software, and current data were digitized at 2 kHz."}, "[3]": {"conditions": "extracellular exposure, TEVC, Xenopus oocytes"}}, "note": "Where two headings read alike, the source gives them in different places."}
{"smiles": "O=C(CNc1ccc2ccccc2c1)N/N=C/c1cc(Br)c(O)c(Br)c1O", "note": "[GlyH-101]", "values": [{"measurement": "Potentiation of mCFTR", "setting": "mCFTR", "result": "potentiate"}]}
{"smiles": "O=C(O)c1cc([N+](=O)[O-])ccc1NCCCc1ccccc1", "note": "[NPPB]", "values": [{"measurement": "Potentiation of hCFTR", "setting": "hCFTR; channel incompletely phosphorylated, activated by a low concentration of PKA", "result": "potentiate"}, {"measurement": "Potentiation of hCFTR", "setting": "hCFTR; extremely high concentrations of NPPB", "result": "potentiate"}]}
{"smiles": "COc1ccc(Cl)cc1C(=O)NCCc1ccc(S(=O)(=O)NC(=O)NC2CCCCC2)cc1", "note": "[glibenclamide]", "values": [{"measurement": "Potentiation of mCFTR", "setting": "mCFTR", "result": "potentiate"}]}
{"smiles": "O=C(NCc1ccc(Oc2ccccc2)cc1)c1nc(-c2cc(Br)c(O)c(Br)c2)no1", "note": "[iOWH-032, 3-(3,5-dibromo-4-hydroxyphenyl)-N-(4-phenoxybenzyl)-1,2,4-oxadiazole-5-carboxamide]", "values": [{"measurement": "Inhibition of R352A human CFTR", "setting": "[1]", "result": "did not inhibit"}, {"measurement": "Potentiation of R352A human CFTR", "setting": "[1]", "result": "potentiated"}, {"measurement": "Inhibition of F508del human CFTR", "setting": "F508del-hCFTR", "result": "did not inhibit"}, {"measurement": "Potentiation of F508del human CFTR", "setting": "F508del-hCFTR; [3]", "result": "potentiated"}, {"measurement": "Kd", "setting": "[2]; inhibition component, read-out: Kd of inhibition of WT-hCFTR", "result": 6.1, "unit": "nM"}, {"measurement": "Kd", "setting": "[2]; potentiation component, read-out: Kd of potentiation of WT-hCFTR", "result": 0.64, "unit": "nM"}, {"measurement": "Potentiation of WT-hCFTR channels", "setting": "[2]; [3]", "result": "potentiated"}]}
